Residues, ends and D or L forms follow the SMILES beside them.
Test: Potentiometry: protonation of the ligand
Type: physicochemical
Conditions: T = 298 K, I = 0.1 M (KCl)
Excerpt: Stability constants for proton and metal complexes were obtained from pH-metric titration curves registered at T = 298 K and ionic strength 0.1 M (KCl). The potentiometric apparatus was previously described. Solutions were titrated with 0.1 M carbonate-free KOH. The electrode was daily calibrated for hydrogen ion concentration by titrating HNO3 with the standard base solution, under the same experimental conditions as above. The asymmetry potential and the slope of the electrode couple were computed by means of […][41] and Glee[42] programs. The purities and exact concentrations of the ligand solutions were determined by the Gran method. The […][44] program was employed for the overall formation constant (β) calculations, referred to the following equilibrium equation: pM + qL + rH ⇆ MpLqHr (charges omitted; p is 0 in the case of ligand protonation; r can be negative). The computed standard deviations (referring to random errors only) were given by the program itself and are shown in parentheses as uncertainties on the last significant figure. Hydrolysis constants for metal ions were taken from the literature[45],[46]. The distribution and competition diagrams were computed using the HYSS program.
1. Wild-type calcitermin: thermodynamic data
Wild-type calcitermin (WT) has been previously investigated by our research group in aqueous solutions and ionic medium NaClO4.1 For the sake of comparison, potentiometric studies of WT and its copper and zinc complexes have been performed in a different ionic medium (KCl 0.1 M). The study of the speciation under different experimental conditions, changing ionic medium and metal-ligand ratio, is essential to comprehensively describe the thermodynamics of calcitermin, which is usually found in multicomponent media like biological fluids.
Table S1. Equilibrium constants for protonation of WT and its Cu2+ and Zn2+ complex formation at T = 298 K and I = 0.1 M (KCl). Values in parentheses are standard deviations on the last significant figure.

CC[C@H](C)[C@H](NC(=O)[C@H](C)NC(=O)[C@@H](N)C(C)C)C(=O)N[C@@H](C)C(=O)N[C@@H](CC(C)C)C(=O)N[C@@H](CCCCN)C(=O)N[C@@H](C)C(=O)N[C@@H](C)C(=O)N[C@@H](Cc1c[nH]cn1)C(=O)N[C@@H](Cc1ccc(O)cc1)C(=O)N[C@@H](Cc1c[nH]cn1)C(=O)N[C@H](C(=O)N[C@@H](Cc1c[nH]cn1)C(=O)N[C@@H](CCCCN)C(=O)N[C@@H](CCC(=O)O)C(=O)O)[C@@H](C)O [WT, VAIALKAAHYHTHKE, reference compound] (H-VAIALKAAHYHTHKE-OH)
protonation logK H2L: 10.53
protonation logK H3L: 9.50
protonation logK H4L: 7.73
protonation logK H5L: 6.93
protonation logK H6L: 6.33
protonation logK H7L: 5.65
protonation logK H8L: 4.22
protonation logK H9L: 2.93
protonation logK HL: 10.61
protonation logβ H2L: 21.14(2)
protonation logβ H3L: 30.64(4)
protonation logβ H4L: 38.38(4)
protonation logβ H5L: 45.31(4)
protonation logβ H6L: 51.64(4)
protonation logβ H7L: 57.29(4)
protonation logβ H8L: 61.51(4)
protonation logβ H9L: 64.44(5)
protonation logβ HL: 10.61(6)

Reference: publication PMC10600247, “Impact of C- and N-terminal protection on the stability, metal chelation and antimicrobial properties of calcitermin” (Scientific Reports, 2023)
